The assay relates to CD2F1 mice, L1210 leukemia ip, survival T/C. The experiment in a line: NCI In Vivo Anticancer Drug Screen. Data for tumor model L1210 Leukemia (intraperitoneal) in CD2F1 (CDF1) mice. To be noted: higher = longer survival. A digest of the protocol:
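Ratio T/C, where T is the treated-group value and C the vehicle-dosed control value, from mice implanted with a transplantable tumor.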

Setting [1] is: endpoint: mean survival time, dose: 100.0 mg/kg/injection, schedule: Q01DX001 (ip), vehicle: saline with Tween-80.
Setting [2] is: endpoint: mean survival time, dose: 200.0 mg/kg/injection, schedule: Q01DX001 (ip), vehicle: saline with Tween-80.
[3] abbreviates: endpoint: mean survival time, dose: 400.0 mg/kg/injection, schedule: Q01DX001 (ip), vehicle: saline with Tween-80.
Setting [4] is: endpoint: mean survival time, dose: 100.0 mg/kg/injection, schedule: Q04DX003 (ip), vehicle: saline with Tween-80.
The mark [5] stands for this setting: endpoint: mean survival time, dose: 200.0 mg/kg/injection, schedule: Q04DX003 (ip), vehicle: saline with Tween-80.
[6] abbreviates: endpoint: mean survival time, dose: 50.0 mg/kg/injection, schedule: Q01DX009 (ip), vehicle: saline with Tween-80.
The mark [7] stands for this setting: endpoint: mean survival time, dose: 100.0 mg/kg/injection, schedule: Q01DX009 (ip), vehicle: saline with Tween-80.
The mark [8] stands for this setting: endpoint: mean survival time, dose: 100.0 mg/kg/injection, schedule: Q01DX009 (ip), vehicle: saline.
The mark [9] stands for this setting: endpoint: mean survival time, dose: 200.0 mg/kg/injection, schedule: Q01DX009 (ip), vehicle: saline.

Consider 20 compounds from PubChem BioAssay AID256 (DTP/NCI, 2004).

“And” between values parts separate entries of the source, which are not always exact repeats. Equal values may be shown once. Inconclusive results and toxic doses are left out.

Take `NC1CCCCC1N.O=S(=O)([O-])CCCNC1CCCCC1.O=S(=O)([O-])CCCNC1CCCCC1.[Pt+4]`: the T/C reads like this: (endpoint: median survival time, dose: 0.78 mg/kg/injection, schedule: Q04DX003 (ip), vehicle: saline) 168 % of control; (endpoint: median survival time, dose: 1.56 mg/kg/injection, schedule: Q04DX003 (ip), vehicle: saline) 256 % of control; (endpoint: median survival time, dose: 3.12 mg/kg/injection, schedule: Q04DX003 (ip), vehicle: saline) 361 % of control and 365 % of control; (endpoint: median survival time, dose: 6.25 mg/kg/injection, schedule: Q04DX003 (ip), vehicle: saline) 169 % of control and 240 % of control.
For the compound `COC1CC(N)C(O)C(C)O1` (stereo not given), the T/C is 103 % of control (endpoint: mean survival time, dose: 12.5 mg/kg/injection, schedule: Q01DX009 (ip), vehicle: water); 101 % of control (endpoint: mean survival time, dose: 25.0 mg/kg/injection, schedule: Q01DX009 (ip), vehicle: water); 107 % of control (endpoint: mean survival time, dose: 50.0 mg/kg/injection, schedule: Q01DX009 (ip), vehicle: water); 105 % of control (endpoint: mean survival time, dose: 100.0 mg/kg/injection, schedule: Q01DX009 (ip), vehicle: water); 92 % of control (endpoint: mean survival time, dose: 200.0 mg/kg/injection, schedule: Q01DX009 (ip), vehicle: water).
Regarding `CCCCCCCC=C(CCCCCCCC)CCCCCCCC`, the T/C is, setting by setting: under setting [1], 100 % of control; under setting [2], 97 % of control; under setting [3], 100 % of control.
Take `O=c1[nH]c(Cc2ccccc2)c(N=Nc2ccccc2)c(=O)[nH]1`: the T/C under setting [2] is 90 % of control and the T/C under setting [3] is 89 % of control.
Take `CCOC(=O)COC(CN)C(Cl)(Cl)Cl` (stereo not given): the T/C under setting [4] is 101 % of control and the T/C under setting [5] is 97 % of control.
With `CN(C)C(=S)Oc1c([N+](=O)[O-])cc([N+](=O)[O-])cc1C(C)(C)C`, for the setting “endpoint: mean survival time, dose: 100.0 mg/kg/injection, schedule: Q04DX002 (ip), vehicle: saline with Tween-80”, the T/C is 91 % of control.
On to `C1SCc2c1c1c(c3c2CSC3)CSC1`, for which the T/C reads like this: under setting [1], 87 % of control; under setting [3], 87 % of control.
Take `CCN(CC)CCC(=O)Nc1cccc2c1C(=O)c1c(c(O)c3ccccc3c1O)C2=O`: the T/C (endpoint: mean survival time, dose: 6.0 mg/kg/injection, schedule: Q04DX003 (ip), vehicle: saline with Tween-80) is 100 % of control; the T/C (endpoint: mean survival time, dose: 12.0 mg/kg/injection, schedule: Q04DX003 (ip), vehicle: saline with Tween-80) is 100 % of control; the T/C (endpoint: mean survival time, dose: 24.0 mg/kg/injection, schedule: Q04DX003 (ip), vehicle: saline with Tween-80) was 100 % of control; the T/C (endpoint: mean survival time, dose: 48.0 mg/kg/injection, schedule: Q04DX003 (ip), vehicle: saline with Tween-80) is 103 % of control.
As to `O=C(O)CC1CCC1CC(=O)O` (stereo not given), the T/C reads like this: under setting [6], 90 % of control; under setting [7], 96 % of control and 100 % of control; (endpoint: mean survival time, dose: 200.0 mg/kg/injection, schedule: Q01DX009 (ip), vehicle: saline with Tween-80) 96 % of control and 103 % of control.
For `CCCC1([N+](=O)[O-])c2ccccc2-c2ccc([N+](=O)[O-])cc21` (stereo not given), the T/C is 98 % of control (endpoint: mean survival time, dose: 100.0 mg/kg/injection, schedule: Q01DX001 (ip), vehicle: saline); 96 % of control (endpoint: mean survival time, dose: 200.0 mg/kg/injection, schedule: Q01DX001 (ip), vehicle: saline); 92 % of control (endpoint: mean survival time, dose: 400.0 mg/kg/injection, schedule: Q01DX001 (ip), vehicle: saline).
Consider `Cc1ccc(NC(=O)NC2CCCCC2)cc1`, for which the T/C under setting [4] was 93 % of control; the T/C under setting [5] is 90 % of control; the T/C (endpoint: mean survival time, dose: 400.0 mg/kg/injection, schedule: Q04DX003 (ip), vehicle: saline with Tween-80) is 93 % of control.
On to `O=C(O)/C=N/NS(=O)(=O)c1ccc(Cl)cc1`, for which the T/C is 97 % of control (endpoint: mean survival time, dose: 12.5 mg/kg/injection, schedule: Q04DX003 (ip), vehicle: other); 105 % of control (endpoint: mean survival time, dose: 25.0 mg/kg/injection, schedule: Q04DX003 (ip), vehicle: other); 118 % of control and 122 % of control (endpoint: mean survival time, dose: 50.0 mg/kg/injection, schedule: Q04DX003 (ip), vehicle: other); 174 % of control (endpoint: mean survival time, dose: 200.0 mg/kg/injection, schedule: Q04DX003 (ip), vehicle: other).
For the compound `O=C(c1ccccc1Cl)c1cccc2ccccc12`, the T/C was 110 % of control under setting [8]; 96 % of control under setting [9]; 94 % of control (endpoint: mean survival time, dose: 400.0 mg/kg/injection, schedule: Q01DX009 (ip), vehicle: saline).
In the case of `CCOc1ccc([NH-])c([NH-])c1.[Cl][Pt+2][Cl]`, the T/C runs as follows: (endpoint: mean survival time, dose: 2.5 mg/kg/injection, schedule: Q01DX009 (ip), vehicle: distilled water + Tween-80) 100 % of control; (endpoint: mean survival time, dose: 5.0 mg/kg/injection, schedule: Q01DX009 (ip), vehicle: distilled water + Tween-80) 107 % of control; (endpoint: mean survival time, dose: 10.0 mg/kg/injection, schedule: Q01DX009 (ip), vehicle: distilled water + Tween-80) 91 % of control.
Turning to `C=C(C)C1CCC2(C(=O)OC)CCC3(C)C(CCC4C5(C)CCC(OC6CCCCO6)C(C)(C)C5CCC43C)C12` (stereo not given), the T/C (endpoint: mean survival time, dose: 6.25 mg/kg/injection, schedule: Q04DX002 (ip), vehicle: saline with Tween-80) is 103 % of control; the T/C (endpoint: mean survival time, dose: 12.5 mg/kg/injection, schedule: Q04DX002 (ip), vehicle: saline with Tween-80) was 95 % of control; the T/C (endpoint: mean survival time, dose: 25.0 mg/kg/injection, schedule: Q04DX002 (ip), vehicle: saline with Tween-80) was 86 % of control.
Turning to `CC(C)(C)OC(=O)C[Si](C)(C)C`, the T/C was 90 % of control (endpoint: mean survival time, dose: 12.5 mg/kg/injection, schedule: Q01DX005 (ip), vehicle: Klucel (hydroxypropylcellulose) (HPC)); 91 % of control (endpoint: mean survival time, dose: 25.0 mg/kg/injection, schedule: Q01DX005 (ip), vehicle: Klucel (hydroxypropylcellulose) (HPC)); 93 % of control (endpoint: mean survival time, dose: 50.0 mg/kg/injection, schedule: Q01DX005 (ip), vehicle: Klucel (hydroxypropylcellulose) (HPC)); 90 % of control (endpoint: mean survival time, dose: 100.0 mg/kg/injection, schedule: Q01DX005 (ip), vehicle: Klucel (hydroxypropylcellulose) (HPC)); 88 % of control (endpoint: mean survival time, dose: 200.0 mg/kg/injection, schedule: Q01DX005 (ip), vehicle: Klucel (hydroxypropylcellulose) (HPC)); 90 % of control (endpoint: mean survival time, dose: 400.0 mg/kg/injection, schedule: Q01DX005 (ip), vehicle: Klucel (hydroxypropylcellulose) (HPC)).
As for `CC(C)(C)C(=O)O`, the T/C is 107 % of control under setting [8]; 89 % of control (endpoint: mean survival time, dose: 100.0 mg/kg/injection, schedule: Q04DX003 (ip), vehicle: saline); 94 % of control under setting [9]; 92 % of control (endpoint: mean survival time, dose: 200.0 mg/kg/injection, schedule: Q04DX003 (ip), vehicle: saline); 93 % of control (endpoint: mean survival time, dose: 400.0 mg/kg/injection, schedule: Q04DX003 (ip), vehicle: saline).
As to `Cc1ccc(C(=S)NC(=O)Nc2ccccc2)cc1`, the T/C is 97 % of control under setting [1], 94 % of control under setting [2] and 97 % of control under setting [3].
As for `CSCS(=O)C[C@H](CO)NC(=O)/C=C/c1c(C)[nH]c(=O)[nH]c1=O` (stereo not given in full), the T/C was 104 % of control (endpoint: mean survival time, dose: 0.03 mg/kg/injection, schedule: Q01DX009 (ip), vehicle: saline); 103 % of control (endpoint: mean survival time, dose: 0.06 mg/kg/injection, schedule: Q01DX009 (ip), vehicle: saline); 105 % of control and 110 % of control (endpoint: mean survival time, dose: 0.08 mg/kg/injection, schedule: Q01DX009 (ip), vehicle: water); 101 % of control (endpoint: mean survival time, dose: 0.13 mg/kg/injection, schedule: Q01DX009 (ip), vehicle: saline); 102 % of control and 111 % of control (endpoint: mean survival time, dose: 0.13 mg/kg/injection, schedule: Q01DX010 (ip), vehicle: saline); 115 % of control and 110 % of control (endpoint: mean survival time, dose: 0.15 mg/kg/injection, schedule: Q01DX009 (ip), vehicle: water). Further, the T/C is 115 % of control (endpoint: mean survival time, dose: 0.25 mg/kg/injection, schedule: Q01DX009 (ip), vehicle: saline); 113 % of control and 114 % of control (endpoint: mean survival time, dose: 0.25 mg/kg/injection, schedule: Q01DX010 (ip), vehicle: saline); 116 % of control (endpoint: mean survival time, dose: 0.3 mg/kg/injection, schedule: Q01DX009 (ip), vehicle: water); 114 % of control (endpoint: mean survival time, dose: 0.5 mg/kg/injection, schedule: Q01DX009 (ip), vehicle: saline); 119 % of control and 112 % of control (endpoint: mean survival time, dose: 0.5 mg/kg/injection, schedule: Q01DX010 (ip), vehicle: saline); 101 % of control (endpoint: mean survival time, dose: 0.6 mg/kg/injection, schedule: Q01DX009 (ip), vehicle: water). Moreover, the T/C (endpoint: mean survival time, dose: 1.0 mg/kg/injection, schedule: Q01DX010 (ip), vehicle: saline) is 108 % of control.
For `Cc1cc(C)c(NC(=O)CC#N)c(C)c1`, the T/C is, setting by setting: (endpoint: mean survival time, dose: 25.0 mg/kg/injection, schedule: Q01DX009 (ip), vehicle: saline with Tween-80) 88 % of control; under setting [6], 86 % of control; under setting [7], 93 % of control.
